Source: patent publication US11559500B2, “Compositions and formulations for treatment of malignancies” (Neugate Pharma, LLC, priority 2017, dated 2023)

Test system: malignant primary or metastatic tumors involving the CNS
Assay: Clinical and radiological tumor response (Macdonald criteria), immune modulating regimen in addition to standard chemoradiotherapy
Format: in vivo, human
Conditions: CNS melanoma subject, ipilimumab with radiotherapy, before the regimen
Procedure: Subjects used in the larger study were diagnosed with different primary or metastatic tumors involving the central nervous system: glioblastoma, carcinoma, or lymphoma. The oral immunomodulation regimen was offered to subjects in addition to standard therapy.
Samples were collected at scheduled clinic visits. […] Radiology studies were performed as part of standard evaluation.

ipilimumab
Disease course on prior therapy: progressed
